Data as given in patent US20130116326A1, “TREATMENT OF DELAYED CUTANEOUS HYPERSENSITIVITY CONDITIONS WITH S-FARNESYLTHIOSALICYLIC ACID AND ANALOGS THEREOF” (RAMOT AT TEL-AVIV UNIVERSITY LTD., priority 2010, published 2013).
Entries after “also recorded” stand apart in the source; their conditions may differ.

How the values were obtained:
Rap1 [1] = test: GST pull-down of GTP.Rap1 (Rap1 GTP loading) in Jurkat T cells; type: cell-based, human; details: for lowering of the amount of GTP.Rap1: Jurkat T cells treated overnight, then stimulated with anti CD3 antibodies for 10 minutes, FIG. 1C; for amount of GTP.Rap1 compared with untreated cells: quiescent Jurkat T cells, treated overnight, 50 μM, FIG. 1A; for ability to inhibit Rap1 activation, comparison among agents: 50 μM overnight
Description: (§1) Jurkat T cells were obtained from the American Type Culture Collection (ATCC) (Manassas, VA). The cells were maintained in RPMI 1640 supplemented with 10% FCS, 2 mM 1-glutamine, and 1% penicillin/streptomycin (Biological Industries, Kibutz Beit Haemek, Israel). Panc-1 cells (ATCC) were grown in Dulbecco's modified Eagle medium (DMEM) containing 10% FCS, 2 mM 1-glutamine, and 1% penicillin/streptomycin. The cells were incubated at 37° C. in a humidified atmosphere of 95% air and 5% CO2. Transfection of Jurkat cells was performed with DMRIE-C (Invitrogen, Carlsbad, Calif.), and cells were examined 24 to 48 hours later. Jurkat T cells were serum starved at 37° C. for 2 to 6 hours, followed by stimulation with 5 μg/ml of mouse anti-human CD3.
(§2) Detection of activated Ras and Rap1 was performed as described previously (4, 9).
Samples were separated by SDS-PAGE using 10% polyacrylamide gels and transferred to nitrocellulose filters. Blots were blocked for 1 hour in TBST (10 mM Tris-HCl (pH 8.0), 150 mM NaCl, and 0.05% Tween 20) containing 3% serum bovine albumin, followed by overnight incubation at 4° C. with the primary antibodies. Blots were washed and incubated for 1 hour at room temperature with HRP-conjugated secondary antibodies. Immunoreactive bands were visualized using the LAS-3000 imaging system (Fujifilm Corp., Tokyo).
The experiments were designed to determine whether FTS and its analogs are able to inhibit GTP loading of Rap1. Quiescent Jurkat T cells were treated overnight with FTS, FTS-A, and FTS-MOM, each at a concentration of 50 μM. Cells were collected and the quantity of GTP.Rap1 was determined by pull-down assay. Compared with untreated cells (control), the amount of GTP.Rap1 decreased in all conditions (FIG. 1A). […] Since Rap1 is activated in T cells as a result of crosslinking the antigen receptor, the effect of FTS, and its analogs, on Rap1 activation in stimulated T cells, was studied. Cells were treated with FTS and its analogs overnight, and subsequently stimulated with anti CD3 antibodies for 10 minutes. […] FTS lowered the amount of GTP.Rap1 by 32%, while FTS-A and FTS-MOM lowered it by 60% and 53%, respectively (FIG. 1C). Thus, FTS and its analogs are able to inhibit Rap1 activation in T cells stimulated through the antigen receptor.

[2] = system: contact sensitivity reaction to DNFB; test: Contact sensitivity to DNFB, ear swelling in mice; type: in vivo, BALB/c female mice
Description: The Institutional Ethics Committee of Tel Aviv University approved the study. BALB/c female mice at 8 to 10 weeks of age were used. Oral administration of FTS-A required doses of 50 and 100 mg/kg (10). The compound 2,4-dinitro-l-fluorobenzene (DNFB) and olive oil were obtained from Sigma-Aldrich (St. Louis, Mo.). Mice were sensitized on the shaved abdomen with 50 μl of 0.5% DNFB in a vehicle of 4:1 acetone:olive oil. Mice were ear challenged with 20 μl t of 0.2% DNFB in a vehicle of 4:1 acetone:olive oil after 5 days. A constant area of the ears was measured immediately before challenge and 24 hours later with an engineer's micrometer (Ozaki Mfg. Co., Itabashi, Tokyo). Ear swelling was expressed as the difference in ear thickness before and after the challenge (11).
Next, the ability of FTS-A to inhibit Rap-1-dependent T cell adhesion in vivo was investigated by using contact sensitivity (15) as a model system. Animals were treated orally with two different concentrations of FTS-A (50 mg/kg and 100 mg/kg). […] When treatment was introduced only during the challenge phase (days 5-6), ear swelling was also attenuated.

Ras = Ras GTP loading in Panc-1 cells; type: cell-based; details: FIG. 6, also as previously reported (ref. 16)
Description: as §1, §2
(§3) Since FTS is known to inhibit Ras, experiments were designed to determine whether the mechanism of Rap1 inhibition by FTS analogs is indirect and mediated by Ras inhibition. Applicants compared the inhibitory profile of FTS and its analogs on both Ras GTP loading and Rap1 GTP loading in Panc-1 cells (FIG. 6B). […] J Med Chem 2009; 52:197-205]. […] Thus, the extent of Ras and Rap1 inhibition by FTS and its analogs is not identical.

Rap1 [3] = test: Rap1 GTP loading in Panc-1 cells; type: cell-based; details: for inhibition of Rap1 GTP loading: Panc-1 cells, FIG. 6A; for selectivity between Ras and Rap1: profile of inhibition Ras versus Rap1
Description: as §1, §2, §3

T cells = test: Viable cell count by tryptan blue exclusion; type: cell-based; details: various concentrations for 72 hours, higher doses, FIG. 3A
Description: Thus, this analog was used for further experiments. First, […] were treated with various concentrations of FTS-A for 72 hours.

Rap1 [4] = test: Confocal microscopy of Rap1 localization and activation in Jurkat T cells; type: cell-based, human
Description: Live cells were plated in 35-mm dishes containing a no. 0 glass coverslip over a 15-mm cutout (MatTek, Ashland, Mass). Cells were maintained at 37° C. using a PDMI-2 microincubator (Harvard Apparatus, Holliston, Mass.). Individual cells were imaged before and after addition of stimuli. Images were acquired with a Zeiss 510 inverted laser scanning confocal microscope (Carl Zeiss Microlmaging, Inc., Thornwood, N.Y.) and processed with Adobe Photoshop CS.
It has been reported that only the pool of Rap1 at the plasma membrane becomes GTP bound on lymphocyte activation (9). The following experiments were designed to study whether Rap1 inhibition by FTS-A is indeed restricted to that compartment. Jurkat T cells, expressing GFP tagged Rap1, were subjected to various agents (FIG. 4A), whereas the localization of Rap1 was recorded by confocal microscopy.
The effects of FTS are rather specific to the active GTP-bound forms of Ras proteins (7). To investigate the possible effect of FTS-A on localization of the active Rap1, the probe for activated Rap1, GFP-RBDRALGDS (13), was utilized. […] In cells that were pretreated by FTS-A, the activation of Rap1 at the plasma membrane was blocked (FIG. 4B) although Rap1 remained associated with the plasma membrane (FIG. 4A). Thus, the pool of Rap1 that is inhibited by FTS-A is found at the plasma membrane.

Rap1 [5] = test: Rap1 inhibition by geranylgeranyl analogue (data not shown)

SMILES	lowering of the amount of GTP.Rap1 (Rap1 [1]) [%]	amount of GTP.Rap1 compared with untreated cells (Rap1 [1])	activation phase of delayed cutaneous hypersensitivity in vivo ([2]; summary statement)	inhibition of Ras GTP loading (Ras)	inhibition of Rap1 GTP loading (Rap1 [3])	selectivity between Ras and Rap1 (Rap1 [3])	ability to inhibit Rap1 activation, comparison among agents (Rap1 [1]; Jurkat T cells)	inhibitory effect on Rap1 when Ras is knocked down (Rap1 [1]; Jurkat T cells, N-Ras and K-Ras knocked down via shRNA, FIG. 6B)	amount of GTP.Rap1, dose-response (Rap1 [1]; higher doses of FTS-A, FIG. 3B)	number of viable cells (T cells)	activation of Rap1 at the plasma membrane (Rap1 [4]; GFP-RBDRALGDS probe, pretreated cells stimulated through the antigen receptor, FIG. 4B)	localization of overexpressed Rap1 (Rap1 [4]; Jurkat T cells expressing GFP tagged Rap1, treatment up to 72 hours, FIG. 4A)	localization of Rap-1 (Rap1 [4]; combined treatment with Bryostatin-1 and FTS-A, FIG. 4A)	development of contact sensitivity reaction to DNFB ([2]; animal models, dose not given)	ear swelling ([2]; oral, 50 mg/kg, FIG. 5A)	ear swelling ([2]; oral, 100 mg/kg, FIG. 5A)	ear swelling ([2]; treatment during the sensitization phase (days 0-2), FIG. 5B)	ear swelling ([2]; treatment only during the challenge phase (days 5-6), FIG. 5B)	Rap1 inhibition compared with FTS analogs (Rap1 [5])
CC(C)=CCC/C(C)=C/CC/C(C)=C/CSc1ccccc1C(=O)O [FTS, S-trans,trans-farnesylthiosalicylic acid]	32	decreased	inhibits	comparable to FTS-A	relatively modest	relatively high selectivity of FTS towards Ras													
CC(C)=CCCC(C)=CCCC(C)=CCSc1ccccc1C(N)=O [FTS-A, FTS-amide]	60	decreased			much greater inhibitory activity toward Rap1 than FTS	inhibited both Ras and Rap1	superior to FTS; also recorded: greatest amount of Rap1 inhibition	unchanged	further diminished	decreased	blocked	did not change	did not change	strongly inhibited	only the higher concentration of FTS-A was able to inhibit ear swelling	able to inhibit ear swelling	did not prevent ear swelling	attenuated	
COCOC(=O)c1ccccc1SCC=C(C)CCC=C(C)CCC=C(C)C [FTS-MOM, methoxymethyl S-farnesylthiosalicylate]	53	decreased		weak Ras inhibitor; also recorded: only a minor inhibitory effect	by far the stronger Rap1 inhibitor; also recorded: strong Rap1 inhibitor	toward Rap1	superior to FTS												
CC(C)=CCC/C(C)=C/CC/C(C)=C/CC/C(C)=C/CSc1ccccc1C(=O)O [GGTS]																			did not prove to be a stronger Rap1 inhibitor
